Patent US20220008495A1, “APPLICATION OF PHLEGMYHEATCLEAR IN PREPARATION OF DRUG FOR TREATMENT OF ACUTE EXACERBATION OF CHRONIC OBSTRUCTIVE PULMONARY DISEASE” (SHANGHAI KAIBAO PHARMACEUTICAL CO., LTD., priority 2020, published 2022)
Marks after values point to notes of the source that are not given here.

Assays:
Format in all cases: in vivo, SD rats
[1] = tested on: model of rats with acute exacerbation of chronic obstructive pulmonary disease; experiment: Pathological examination of lung tissue (HE staining; MLI, MAN, bronchial wall thickness); conditions: dexamethasone 0.23 mg/kg/d gavage 7 days; x±SD, n=8
Method: The administration was started from the 2nd day of the 13th week. The same volume of purified water (10 ml/kg/d) was administered intragastrically to rats in the blank control group and the model control group, and the other groups were received high dose of phlegmyheatclear, middle dose of phlegmyheatclear, low dose of phlegmyheatclear, and dexamethasone once a day. All the rats were fasted within 12 hours before sampling of blood, however, the rats were allowed to free access to water. […] Then the rats were anesthetized by intraperitoneal injection of 10% 1.0 ml/100 g urethane. Exposed tracheal intubation was performed. […] The rat trachea and the whole lung were taken out by thoracotomy. […]

[2] = tested on: model of rats with acute exacerbation of chronic obstructive pulmonary disease; experiment: Lung functions (animal pulmonary function test system); conditions: dexamethasone 0.23 mg/kg/d gavage 7 days; x±SD, n=6-12
Text: (§1) The rats were allowed to acclimate to their surroundings for 7 days since purchased from the specific company. The rats were fed sterilized feed and allowed to free access to sterilized water. Operators regularly checked purification and water and electricity operating system to keep a quite environment. 14 rats were selected to fall into a blank control group, and the remaining rats were subjected to cigarette smoking and repeatedly infected with Klebsiella pneumoniae (KP) to establish chronic obstructive pulmonary disease (COPD) stable-phase model of rats. The method comprises the steps of: light a cigarette, making smoke concentration reach 3000±500 ppm, twice a day. The rats took a rest for at least 3 hours between the two times of being exposed to cigarette smoking, lasting for a total of 12 weeks. From 1 to 8 weeks, model of rats were instilled KP suspension (6×10^8 CFU/ml) 0.1 ml through the nasal cavity every 5 days. Instillation via the nasal cavity: a sterilized 1 ml syringe was used to draw 0.1 ml of KP suspension; the KP suspension was instilled into the rats when the rats were breathing in, and the instillation process was done in either the left and right nostrils in an alternating way. Lipopolysaccharide (LPS) 2 mg/kg was instilled into the trachea on the first day of the 13th week to establish model of rats with acute exacerbation of chronic obstructive pulmonary disease. After successful modeling, the model of rats were randomly divided into five groups, including a model control group, a high dose of phlegmyheatclear group, a middle dose of phlegmyheatclear group, a low dose of phlegmyheatclear group, and a dexamethasone group, with 12 rats in each group.
The administration was started from the 2nd day of the 13th week. The same volume of purified water (10 ml/kg/d) was administered intragastrically to rats in the blank control group and the model control group, and the other groups were received high dose of phlegmyheatclear, middle dose of phlegmyheatclear, low dose of phlegmyheatclear, and dexamethasone once a day. All the rats were fasted within 12 hours before sampling of blood, however, the rats were allowed to free access to water. Blood samples were collected from caudal vein for CBC. Then the rats were anesthetized by intraperitoneal injection of 10% 1.0 ml/100 g urethane. Exposed tracheal intubation was performed. Changes of the pulmonary functions of the rats were detected by using an animal pulmonary function test system (PET). Blood was collected from the abdominal aorta, and the collected blood was placed for 2 hours and centrifuged to obtain the blood serum to detect the levels of inflammatory factors IL-6, IL-10, CRP and SAA. The rat trachea and the whole lung were taken out by thoracotomy. The right main bronchus was ligated, and the left bronchoalveolar lavage fluid (BALF) was drawn out to detect the level of inflammatory factor TNF-α; the left lung was perfused with 4% paraformaldehyde for 1 hour, and the left lung was directly fixed in the 4% paraformaldehyde for pathological examination.
Before sampling, the rats were anesthetized by intraperitoneal injection of 10% 1.0 ml/100 g urethane. Exposed tracheal intubation was performed. Relevant parameters of each rat were detected by using an animal pulmonary function test system (PET), wherein the parameters include forced vital capacity (FVC), forced expiratory volume at 0.1 s (FEV0.1), forced expiratory volume at 0.3 s (FEV0.3), maximum expiratory flow rate (PEF), mid-maximum expiratory flow (MMEF), functional residual capacity (FRC), and other parameters, changes in lung function (x±SD) of rats in each group are shown in Table 3.

[3] = tested on: model of rats with acute exacerbation of chronic obstructive pulmonary disease; experiment: Determination of IL-6, IL-10 in serum and TNF-α in alveolar lavage fluid (ELISA); conditions: dexamethasone 0.23 mg/kg/d gavage 7 days, n=10-12
Method: The administration was started from the 2nd day of the 13th week. The same volume of purified water (10 ml/kg/d) was administered intragastrically to rats in the blank control group and the model control group, and the other groups were received high dose of phlegmyheatclear, middle dose of phlegmyheatclear, low dose of phlegmyheatclear, and dexamethasone once a day. All the rats were fasted within 12 hours before sampling of blood, however, the rats were allowed to free access to water. […] Then the rats were anesthetized by intraperitoneal injection of 10% 1.0 ml/100 g urethane. Exposed tracheal intubation was performed. […]

[4] = tested on: model of rats with acute exacerbation of chronic obstructive pulmonary disease; experiment: Determination of serum CRP and SAA levels (ELISA); conditions: dexamethasone 0.23 mg/kg/d gavage 7 days, x±SD, n=9-12
Text: as §1, with “Lipopolysaccharide (LPS) 2 mg/kg was instilled into the trachea on the first day of the 13th week to establish model of rats with acute exacerbation of chronic obstructive pulmonary disease. After successful modeling, the model of rats were randomly divided into five groups, including a model control group, a high dose of phlegmyheatclear group, a middle dose of phlegmyheatclear group, a low dose of phlegmyheatclear group, and a dexamethasone group, with 12 rats in each group.” left out
The administration was started from the 2nd day of the 13th week. […] Changes of the pulmonary functions of the rats were detected by using an animal pulmonary function test system (PET). […]

[5] = tested on: model of rats with acute exacerbation of chronic obstructive pulmonary disease; experiment: Complete blood count (peripheral blood inflammatory cells); conditions: dexamethasone 0.23 mg/kg/d gavage 7 days, x±SD
Text: as §1
The administration was started from the 2nd day of the 13th week. The same volume of purified water (10 ml/kg/d) was administered intragastrically to rats in the blank control group and the model control group, and the other groups were received high dose of phlegmyheatclear, middle dose of phlegmyheatclear, low dose of phlegmyheatclear, and dexamethasone once a day. All the rats were fasted within 12 hours before sampling of blood, however, the rats were allowed to free access to water. Blood samples were collected from caudal vein for CBC. Then the rats were anesthetized by intraperitoneal injection of 10% 1.0 ml/100 g urethane. Exposed tracheal intubation was performed. Changes of the pulmonary functions of the rats were detected by using an animal pulmonary function test system (PET). […]
Blood samples were collected from caudal vein for CBC, the following items were counted: the white blood cell count (WBC), the ratio of neutrophils (NEU %), the percentage of lymphocytes (% LYMPH) and the percentage of mononuclear cells (% MONO).

For `C[C@@H]1C[C@H]2[C@@H]3CCC4=CC(=O)C=C[C@]4(C)[C@@]3(F)[C@@H](O)C[C@]2(C)[C@@]1(O)C(=O)CO` [Dexamethasone, dexamethasone], the “MAN (mean alveolar numbers)” value [1] was 330.49 ± 77.29 ↑/mm^2, the “MLI (mean linear intercept)” value [1] was 47.24 ± 5.78 μm and the Wt (bronchial wall thickness) [1] was 16.6 ± 4.01 µm. For the same molecule, the “FEV0.1 (forced expiratory volume at 0.1 s)” value [2] was 5.31 ± 2.90 mL, the “FEV0.3 (forced expiratory volume at 0.3 s)” value [2] was 15.06 ± 2.84 ^b mL and the “FRC (functional residual capacity)” value [2] was 4.37 ± 1.48 mL. The “FVC (forced vital capacity)” value [2] was 16.33 ± 2.01^bb mL, the MMEF (mid-maximum expiratory flow) [2] was 78.6 ± 29.1 mL/s and the “PEF (maximum expiratory flow rate)” value [2] was 81.57 ± 29.43 mL/S. For the same molecule, the TNF-α ([3]; alveolar lavage fluid (BALF)) was 325.52 ± 49.51^bb pg/mL, the IL-6 ([3]; serum) was 507.54 ± 185.62^bb pg/mL and the IL-10 ([3]; serum) was 40.65 ± 6.31 ^ pg/mL. For the same molecule, the CRP [4] was 3420.23 ± 1254.10^bb ng/mL, the SAA [4] was 19.18 ± 6.18^bb μg/mL and the “LYM (percentage of lymphocytes)” value [5] was 82.15 ± 15.32%. For the same molecule, the “MONO (percentage of mononuclear cells)” value [5] was 0.61 ± 0.25^b %, the “NEU (ratio of neutrophils)” value [5] was 16.57 ± 14.99% and the “WBC (white blood cell count)” value [5] was 3.80 ± 1.53^bb *10^9/L.
